Broadly, the melting point is the temperature of the solid-liquid transition.

The text below walks through data of US6759408B2 (Wyeth, priority 1999, dated 2004).

Test system in one data set: not given
Assay: not given
Details: not given
On to `Cc1cc(C#N)sc1-c1ccc2c(c1)C(C)(C)OC(=O)N2` [Compound 18, 5-(4,4-Dimethyl-2-oxo-1,4-dihydro-2H-benzo[d][1,3]oxazin-6-yl)-4-methyl-thiophene-2-carbonitrile], for which the melting point is 195 to 200 °C.

`Cc1cc(C#N)cc(-c2ccc3c(c2)C(C)(C)OC(=O)N3)c1` [Example 58, 3-(4,4-Dimethyl-2-oxo-1,4-dihydro-2H-benzo[d][1,3]oxazin-6-yl)-5-methyl-benzonitrile] showed a melting point of 256 to 258 °C. For `CC1(C)OC(=O)Nc2ccc(-c3ccc([N+](=O)[O-])[nH]3)cc21` [Example 96, 4,4-Dimethyl-6-(5-nitro-1H-pyrrol-2-yl)-1,4-dihydrobenzo[d][1,3]oxazin-2-one], the melting point was 265 °C (dec.). Same read-out and setting: the figure for `Cc1cc(C#N)sc1-c1ccc2c(c1)C1(CCCCC1)OC(=O)N2` [Compound 10, 5-(1,2-Dihydro-2-oxospiro[4H-3,1-benzoxazine-4,1-cyclohexan]-6-yl)-4-methyl-2-thiophenecarbonitrile] is 200 to 203 °C; for `CC1(C)OC(=O)Nc2ccc(-c3cccc(S(N)(=O)=O)c3)cc21` [Example 140, 3-(4,4-Dimethyl-2-oxo-1,4-dihydro-2H-benzo[d][1,3]-oxazin-6-yl)benzenesulfonamide] it is 242 to 244 °C (dec.).

With `CC1(C)OC(=O)Nc2ccc(-c3cc(C#N)cc(C#N)c3)cc21` [Example 80, 5-(4,4-Dimethyl-2-oxo-1,4-dihydro-2H-benzo[d][1,3]oxazin-6-yl)-isophthalonitrile], the melting point lay within 288 to 289 °C. Still for that read-out and setting: the figure for `O=C1Nc2ccc(-c3cc(F)cc(Br)c3)cc2C(C2CC2)(C2CC2)O1` [Example 54, 6-(3-Bromo-5-fluoro-phenyl)-4,4-dicyclopropyl-1,4-dihydrobenzo-[d][1,3]oxazin-2-one] is 228 to 229 °C; for `CCC1(CC)OC(=O)Nc2ccc(-c3cccc(Cl)c3)cc21` [Example 25, 6-(3-Chlorophenyl)-4,4-diethyl-1,4-dihydrobenzo[d][1,3]oxazin-2-one] it is 150 to 151 °C. Consider `CC1(C)OC(=O)Nc2ccc(-c3coc(C=NO)c3)cc21` [Example 145, 4-(1,4-Dihydro-4,4-dimethyl-2-oxo-2H-3,1-benzoxazin-6-yl)-2-furancarboxaldehyde oxime], for which the melting point fell in the range of 236 to 238 °C. With `CC1(C)OC(=O)Nc2ccc(-c3cccc(C#N)c3)cc21` [Example 12, 3-(4,4-Dimethyl-2-oxo-1,4-dihydro-2H-benzo[d][1,3]oxazin-6-yl)-benzonitrile], the melting point was in the range of 236 to 237 °C. Same read-out and setting: in the case of `Cc1cc(Br)cc(-c2ccc3c(c2)C(C)(C)OC(=O)N3)c1` [Example 56, 6-(3-Bromo-5-methyl-phenyl)-4,4-dimethyl-1,4-dihydrobenzo-[d][1,3]oxazin-2-one] it was 231 to 233 °C; in that of `CC1(C)OC(=O)Nc2ccc(-c3cc(F)cc(-c4ccsc4)c3)cc21` [Example 93, 6-(3-Fluoro-5-thiophen-3-yl-phenyl)-4,4-dimethyl-1,4-dihydro-benzo[d][1,3]oxazin-2-one], 200 to 203 °C; in that of `CCC1(CC)OC(=O)Nc2ccc(-c3cccc([N+](=O)[O-])c3)cc21` [Example 24, 4,4-Diethyl-6-(3-nitrophenyl)-1,4-dihydrobenzo[d][1,3]oxazin-2-one], 193 to 194 °C.

With `CC1(C)OC(=O)Nc2ccc(-c3coc(C#N)c3)cc21` [Example 23, 4-(4,4-Dimethyl-2-oxo-1,4-dihydro-2H-benzo[d][1,3]oxazin-6-yl)-furan-2-carbonitrile], the melting point lay in the range of 255 to 256 °C. The same measure, in the same setting: the figure for `O=C1Nc2ccc(-c3cccc(Cl)c3)cc2C(C2CC2)(C2CC2)O1` [Example 43, 6-(3-Chloro-phenyl)-4,4-dicyclopropyl-1,4-dihydro-benzo[d][1,3]oxazin-2-one] is 198 to 200 °C; for `C#CC1(C)OC(=O)Nc2ccc(-c3cccc(Cl)c3)cc21` (centres unmarked) [Example 38, 6-(3-Chlorophenyl)-4-ethynyl-4-methyl-1,4-dihydro-benzo[d][1,3]oxazin-2-one] it is 185 to 186 °C; for `CC1(C)OC(=O)Nc2ccc(-c3cncc(C#N)c3)cc21` [Example 16, 5-(4,4-Dimethyl-2-oxo-1,4-dihydro-2H-benzo[d][1,3]oxazin-6-yl)-nicotinonitrile] it is 290 to 291 °C.

As for `CC1(C)OC(=O)Nc2ccc(-c3cccc(Cl)c3)cc21` [Example 5, 6-(3-Chlorophenyl)-4,4-dimethyl-1,4-dihydrobenzo[d][1,3]oxazin-2-one], the melting point was in the range of 158 to 159 °C. Still for that read-out and setting: the figure for `CC1(C)OC(=O)Nc2ccc(-c3cccc(C#CC#N)c3)cc21` [Example 75, 3-[3-(4,4-Dimethyl-2-oxo-1,4-dihydro-2H-benzo[d][1,3]oxazin-6-yl)-phenyl]-propynenitrile] is 212 to 213 °C; for `CC1(C)OC(=O)Nc2ccc(-c3csc(C#N)c3)cc21` [Compound 17, 4-(4,4-Dimethyl-2-oxo-1,4-dihydro-2H-benzo[d][1,3]oxazin-6-yl)-thiophene-2-carbonitrile] it is 230 to 231 °C (dec.); for `CC1(C)OC(=O)Nc2ccc(-c3sccc3C#N)cc21` [Example 91, 2-(4,4-Dimethyl-2-oxo-1,4-dihydro-2H-benzo[d][1,3]oxazin-6-yl)-thiophene-3-carbonitrile] it is 200 to 202 °C. The same measure, in the same setting: in the case of `CC(C)(C)OC(=O)n1cccc1-c1ccc2c(c1)C(C)(C)OC(=O)N2` [Example 94, 2-(4,4-Dimethyl-2-oxo-1,4dihydro-2H-benzo[d][1,3]oxazin-6-yl)-pyrrole-1-carboxylic acid tert-butyl ester] it was 176 °C. Still for that read-out and setting: the figure for `COc1cccc(-c2ccc3c(c2)C(C)(C(F)(F)F)OC(=O)N3)c1` (centres unmarked) [Example 48, 6-(3-Methoxyphenyl)-4-methyl-4-trifluoromethyl-1,4-dihydro-benzo[d][1,3]oxazin-2-one] is 178 to 179 °C; for `CC#CC1(C)OC(=O)Nc2ccc(-c3cccc(Cl)c3)cc21` (centres unmarked) [Example 37, 6-(3-Chlorophenyl)-4-methyl-4-propyn-1-yl-1,4-dihydro-benzo[d][1,3]oxazin-2-one] it is 184 to 185 °C.

A further data set concerns rat uterine decidualization. Kind of data set: Rat decidualization assay. Type of data set: in vivo. The settings on record: read-out: CV-1 IC50 (mg/kg): Percentage inhibition at the dose specified. How it is done: 1. Rat Decidualization Assay
b. Animals (RACUC Protocol #5002)
The animals are treated once daily for seven days.
Uteri are removed and trimmed of fat.
Body weight: Mean total animal body weight (default-kg)
Decidual response: [(D-C)/C]×100%
Consider `Cc1cc(C#N)sc1-c1ccc2c(c1)C1(CCCCC1)OC(=O)N2` [Compound 10, 5-(1,2-Dihydro-2-oxospiro[4H-3,1-benzoxazine-4,1-cyclohexan]-6-yl)-4-methyl-2-thiophenecarbonitrile], for which the inhibition in vivo at 10 mg/kg stood at 50%. Still for that read-out and setting: in the case of `N#Cc1ccc(-c2ccc3c(c2)C2(CCCCC2)OC(=O)N3)s1` [Compound 11, 5-(1,2-Dihydro-2-oxospiro[4H-3,1-benzoxazine-4,1-cyclohexan]-6-yl)-2-thiophenecarbonitrile] it was 50%.
